In patent US7354728B2, “Coactivation of nuclear receptors” (N.V. Organon, priority 2000, dated 2008):
Each block holds one molecule with its values, some of them ahead of it.

Legend:
ERβ = molecular target: T1, ERβ (Homo sapiens, UniProt Q92731); assay: Transient transfection of U-2 OS cells with ERβ and ERE luciferase reporter, with or without COASTER; format: cell-based; conditions: 10^−8 M ligand, ± SD triplicate
T1 construct: expressed in transfected cells; host or cells: U-2 OS
Method: (§1) To test the functional role of COASTER in a mammalian setting, the full length COASTER (amino acids 1-1013) cDNA was cloned in a mammalian cell expression vector. The functional role of COASTER was analyzed by cotransfection of U-2 OS cells with the COASTER expression plasmid in combination with a steroid receptor expressing plasmid, and a plasmid containing a luciferase reporter gene under control of a hormone responsive element. Following transfection, cells were stimulated with the appropriate hormone for the receptor under study.
(§2) U-2 OS cells were transiently transfected with pNGV1.ERβ and p4ERE-TATA-LUC (1), pNGV1.ERα and p4ERE-TATA-LUC (2), pKCRE.PR and pMMTV-LUC (3) or pNGV1.GR and pMMTV-LUC (4). Where indicated, COASTER expression construct pCDNA3.1HISC.COASTER was added to the transfection mixture. Following transfection, cell were incubated with the hormones indicated in the top row. […] Org 2058=16α-ethyl-21-hydroxy-19-norpregn-4-ene-3,20-dione.
(§3) Initially, a plasmid encoding a truncated form of COASTER (pACT2.COASTERΔ, amino acids 1-234) was isolated in the yeast two hybrid screen. […] The 5′ end of the COASTER (amino acid 1 to 332) was amplified by PCR on human-testis Marathon Ready cDNA (Clontech, Palo Alto, USA, cat.#7414-1) using primers […] […]

ERβ and COASTER = ERβ and COASTER (Homo sapiens, UniProt Q92731); assay: Yeast two-hybrid assay, β-galactosidase reporter, ERβ with COASTER amino acids 1-234; format: cell-based; conditions: yeast AH109, pGBT9.ERβ + pACT2.COASTERΔ; 10^−8 M 17β-estradiol, 10^−5 M raloxifen
ERβ and COASTER, sequence (Q92731 whole entry, the tested form may be a part): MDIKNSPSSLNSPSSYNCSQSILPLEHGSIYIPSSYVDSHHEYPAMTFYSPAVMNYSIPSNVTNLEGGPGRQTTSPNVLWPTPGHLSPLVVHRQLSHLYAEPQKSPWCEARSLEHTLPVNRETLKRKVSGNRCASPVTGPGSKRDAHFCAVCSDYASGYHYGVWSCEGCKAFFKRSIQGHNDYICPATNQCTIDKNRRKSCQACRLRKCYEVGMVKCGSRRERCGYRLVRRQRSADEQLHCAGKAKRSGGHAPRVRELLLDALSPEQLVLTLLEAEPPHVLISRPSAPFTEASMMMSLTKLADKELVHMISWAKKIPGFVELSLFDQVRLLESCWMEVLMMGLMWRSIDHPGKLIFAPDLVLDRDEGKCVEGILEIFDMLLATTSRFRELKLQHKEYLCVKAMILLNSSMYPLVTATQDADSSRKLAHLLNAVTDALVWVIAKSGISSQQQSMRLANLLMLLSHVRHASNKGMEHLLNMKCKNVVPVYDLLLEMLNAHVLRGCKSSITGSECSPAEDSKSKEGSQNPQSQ

[1] = molecular target: progesterone receptor (PR) (Homo sapiens, UniProt P06401); assay: Transient transfection of U-2 OS cells with PR and pMMTV-LUC reporter, with or without COASTER; format: cell-based; conditions: 10^−8 M ligand, ± SD triplicate
progesterone receptor (PR), sequence (P06401 whole entry, species assumed): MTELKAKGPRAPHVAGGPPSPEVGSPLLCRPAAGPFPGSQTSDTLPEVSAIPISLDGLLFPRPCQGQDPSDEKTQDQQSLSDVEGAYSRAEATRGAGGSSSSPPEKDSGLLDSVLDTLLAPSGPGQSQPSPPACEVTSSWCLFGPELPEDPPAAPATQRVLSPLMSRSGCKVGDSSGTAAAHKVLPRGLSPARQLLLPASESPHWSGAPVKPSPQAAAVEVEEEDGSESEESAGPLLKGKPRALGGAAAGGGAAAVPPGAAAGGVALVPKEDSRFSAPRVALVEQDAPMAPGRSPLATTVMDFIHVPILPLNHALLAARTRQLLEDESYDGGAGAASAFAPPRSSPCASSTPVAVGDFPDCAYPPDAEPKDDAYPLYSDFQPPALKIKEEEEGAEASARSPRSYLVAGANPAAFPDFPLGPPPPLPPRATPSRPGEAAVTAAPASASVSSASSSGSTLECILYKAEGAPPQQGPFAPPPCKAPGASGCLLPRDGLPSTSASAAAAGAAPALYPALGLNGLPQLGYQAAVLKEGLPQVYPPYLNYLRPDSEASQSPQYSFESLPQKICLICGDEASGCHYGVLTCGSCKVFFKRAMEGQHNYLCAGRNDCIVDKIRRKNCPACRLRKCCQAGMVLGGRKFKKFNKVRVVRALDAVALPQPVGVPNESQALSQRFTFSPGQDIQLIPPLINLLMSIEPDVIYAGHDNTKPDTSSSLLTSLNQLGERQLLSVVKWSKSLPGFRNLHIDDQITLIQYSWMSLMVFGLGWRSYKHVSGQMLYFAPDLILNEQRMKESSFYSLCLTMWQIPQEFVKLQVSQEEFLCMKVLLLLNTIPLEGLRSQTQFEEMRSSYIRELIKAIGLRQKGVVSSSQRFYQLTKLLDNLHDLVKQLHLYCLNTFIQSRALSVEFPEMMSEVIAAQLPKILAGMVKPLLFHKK
Method: as §1, §2, §3

[2] = molecular target: glucocorticoid receptor, expressed from pNGV1.GR in U-2 OS cells (human) (UniProt P04150); assay: cell-based or functional assay
glucocorticoid receptor, expressed from pNGV1.GR in U-2 OS cells (human), sequence (P04150 whole entry): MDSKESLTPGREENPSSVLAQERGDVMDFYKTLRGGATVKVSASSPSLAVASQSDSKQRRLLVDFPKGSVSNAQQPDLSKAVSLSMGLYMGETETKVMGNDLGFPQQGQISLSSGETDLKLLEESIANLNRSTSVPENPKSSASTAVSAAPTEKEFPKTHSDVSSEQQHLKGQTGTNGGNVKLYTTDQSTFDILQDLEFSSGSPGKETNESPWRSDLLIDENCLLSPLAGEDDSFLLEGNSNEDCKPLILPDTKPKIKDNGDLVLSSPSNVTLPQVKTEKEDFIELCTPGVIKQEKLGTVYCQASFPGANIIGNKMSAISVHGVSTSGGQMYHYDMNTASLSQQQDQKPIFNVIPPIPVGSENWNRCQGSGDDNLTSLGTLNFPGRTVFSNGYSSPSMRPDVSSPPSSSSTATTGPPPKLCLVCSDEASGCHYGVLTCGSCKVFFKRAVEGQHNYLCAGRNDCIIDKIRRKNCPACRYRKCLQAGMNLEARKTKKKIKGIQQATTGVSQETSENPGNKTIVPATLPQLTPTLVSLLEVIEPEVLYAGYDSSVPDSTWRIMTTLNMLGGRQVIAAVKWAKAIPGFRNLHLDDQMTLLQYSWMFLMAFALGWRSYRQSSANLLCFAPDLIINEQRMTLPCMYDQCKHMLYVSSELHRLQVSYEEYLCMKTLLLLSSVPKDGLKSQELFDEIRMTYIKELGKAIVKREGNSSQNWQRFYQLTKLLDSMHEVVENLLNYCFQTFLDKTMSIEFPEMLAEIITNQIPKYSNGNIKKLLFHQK

[3] = molecular target: human estrogen receptor β, expressed from pNGV1.ERβ in U-2 OS cells (human) (UniProt Q92731); assay: cell-based or functional assay
human estrogen receptor β, expressed from pNGV1.ERβ in U-2 OS cells (human), sequence (Q92731 whole entry): as the sequence (Q92731 whole entry, the tested form may be a part) above

[4] = molecular target: progesterone receptor, expressed from pKCRE.PR in U-2 OS cells; assay: cell-based or functional assay

T1 sequence (Q92731 whole entry): as the sequence (Q92731 whole entry, the tested form may be a part) above

Molecule: C[C@]12CC[C@@H]3c4ccc(O)cc4CC[C@H]3[C@@H]1CC[C@@H]2O [17β-estradiol]
luciferase activity (ERβ; pNGV1.ERβ + p4ERE-TATA-LUC + COASTER): 8200 ± 819
luciferase activity (ERβ; pNGV1.ERβ + p4ERE-TATA-LUC, no COASTER): 500 ± 109
β-galactosidase reporter activity (ERβ-COASTER interaction, FIG. 3) (ERβ and COASTER): dose-dependent induction
signalling via the ERα/β chimera (ERα/β chimera): able to signal

luciferase activity ([1]; pKCRE.PR + pMMTV-LUC + COASTER): 3229 ± 683
luciferase activity ([1]; pKCRE.PR + pMMTV-LUC, no COASTER): 822 ± 112
Molecule: CC[C@@H]1C[C@H]2[C@@H]3CCC4=CC(=O)CC[C@@H]4[C@H]3CC[C@]2(C)[C@H]1C(=O)CO [Org 2058, 16α-ethyl-21-hydroxy-19-norpregn-4-ene-3,20-dione]

Molecule: O=C(c1ccc(OCCN2CCCCC2)cc1)c1c(-c2ccc(O)cc2)sc2cc(O)ccc12 [raloxifen]
signalling via the ERα/β chimera (ERα/β chimera): able to signal

luciferase activity, pMMTV-LUC in U-2 OS cells, 10^-8 M Dexamethasone (luciferase activity) [2]: 35200
luciferase activity, pMMTV-LUC in U-2 OS cells, no hormone (luciferase activity) [2]: 103
luciferase activity, p4ERE-TATA-LUC in U-2 OS cells, 10^-8 M 17β-estradiol (luciferase activity) [3]: 8200
luciferase activity, p4ERE-TATA-LUC in U-2 OS cells, 10^-8 M ICI 164,384 (luciferase activity) [3]: 101
luciferase activity, p4ERE-TATA-LUC in U-2 OS cells, no hormone (luciferase activity) [3]: 133
luciferase activity, pMMTV-LUC in U-2 OS cells, 10^-8 M Org 2058 (luciferase activity) [4]: 3230
luciferase activity, pMMTV-LUC in U-2 OS cells, no hormone (luciferase activity) [4]: 81
Molecule: full length COASTER (amino acids 1-1013), expressed from pCDNA3.1HISC.COASTER (from UniProt Q9Y4E5 1-1013)
